What was measured:
[1] = tested on: AMBEL (Ambrosia artemisifolia); assay: Preemergence herbicidal evaluation; format: in vivo, L.; details: rated 4-5 weeks after treatment
Procedure, shortened: (§1)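 Steps: mix seeds with potting soil; plant on ~1 inch soil per cup; spray compound in aqueous acetone; hold on greenhouse benches with routine watering; rate 0–9 visually against control at 4–5 weeks.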

[2] = tested on: CHEAL (Chenopodium album); assay: Preemergence herbicidal evaluation; format: in vivo, L.; details: rated 4-5 weeks after treatment
Procedure, shortened: as §1

[3] = tested on: CASOB (Cassia obtusifolia); assay: Preemergence herbicidal evaluation; format: in vivo, L.; details: rated 4-5 weeks after treatment
Procedure, shortened: as §1

[4] = tested on: ABUTH (Abutilon theophrasti); assay: Preemergence herbicidal evaluation; format: in vivo, Medic.; details: rated 4-5 weeks after treatment
[5] = tested on: ORYSAT (Rice, Tebonnet); assay: Postemergence herbicidal evaluation; format: in vivo, Oryza sativa, (L.) Tebonnet
Procedure, shortened: (§2)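 Visual 0–9 injury scores versus control plants, covering stand, vigour, malformation, size, chlorosis and general appearance, taken four to five weeks post-spray and averaged over replicate tests. Plants were sprayed at roughly two weeks old and held on greenhouse benches.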

[6] = tested on: IPOHE (Ipomoea hederacea); assay: Postemergence herbicidal evaluation; format: in vivo, (L.) Jacq.
Procedure, shortened: as §2

[7] = tested on: GLXMAW (Soybean, Williams); assay: Preemergence herbicidal evaluation; format: in vivo, Glycine max, (L.) Merr. cv Williams; details: rated 4-5 weeks after treatment
[8] = tested on: CYPIR (Cyperus iria); assay: Flooded paddy, preemergence weed control; format: in vivo; details: rated 3-4 weeks after treatment, 0-9 rating scale
Procedure, shortened: (§3)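 Seeds or propagating organs were sown in the top 0.5 cm of silt loam soil, flooded, and the water kept 1.5 to 3 cm above the soil surface throughout. Plants were grown in the greenhouse and rated visually on a 0-9 scale against a control.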

[9] = tested on: TRZAWR (Wheat, Winter, cv Riband); assay: Preemergence herbicidal evaluation; format: in vivo, Triticum aestivum; details: rated 4-5 weeks after treatment
Procedure, shortened: as §1

[10] = tested on: GLXMAW (Soybean, Williams); assay: Postemergence herbicidal evaluation; format: in vivo, Glycine max, (L.) Merr. cv Williams
Procedure, shortened: as §2

[11] = tested on: ABUTH (Abutilon theophrasti); assay: Postemergence herbicidal evaluation; format: in vivo, Medic.
Procedure, shortened: as §2

[12] = tested on: MOOVA (Monochoria vaginalis); assay: Flooded paddy, preemergence weed control; format: in vivo, Presl.; details: rated 3-4 weeks after treatment, 0-9 rating scale
Procedure, shortened: as §3

[13] = tested on: IPOHE (Ipomoea hederacea); assay: Preemergence herbicidal evaluation; format: in vivo, (L.) Jacq.; details: rated 4-5 weeks after treatment
[14] = tested on: ZEAMX (Corn, Field); assay: Preemergence herbicidal evaluation; format: in vivo, Zea mays, L.; details: rated 4-5 weeks after treatment
[15] = tested on: ORYSAT (Rice, Tebonnet); assay: Flooded paddy, post-transplant rice tolerance; format: in vivo, Oryza sativa, (L.) Tebonnet; details: flooded paddy, post-transplant rice, rated 3-4 weeks after treatment, 0-9 rating scale
Procedure, shortened: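 Steps: transplant two ten-day-old seedlings into silt loam; flood to 1.5-3 cm above soil; apply herbicide post-transplant; maintain water on greenhouse benches; rate stand, vigor, malformation, size and chlorosis on a 0-9 visual scale versus control.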

[16] = tested on: ECHCG (Echinochloa crus-galli); assay: Preemergence herbicidal evaluation; format: in vivo, (L.) Beau; details: rated 4-5 weeks after treatment
Procedure, shortened: as §1

[17] = tested on: SETVI (Setaria viridis); assay: Preemergence herbicidal evaluation; format: in vivo, (L.) Beau; details: rated 4-5 weeks after treatment
Procedure, shortened: as §1

[18] = tested on: AMBEL (Ambrosia artemisifolia); assay: Postemergence herbicidal evaluation; format: in vivo, L.
Procedure, shortened: as §2

[19] = tested on: CHEAL (Chenopodium album); assay: Postemergence herbicidal evaluation; format: in vivo, L.
Procedure, shortened: as §2

[20] = tested on: CASOB (Cassia obtusifolia); assay: Postemergence herbicidal evaluation; format: in vivo, L.
Procedure, shortened: as §2

C[C@@H]1OC(c2nsc3ccc(-n4c(=O)cc(C(F)(F)F)n(C)c4=O)cc23)O[C@@H]1C (stereo partly drawn) [Compound 47, 3-[3-[(4R,5S)-4,5-dimethyl-1,3-dioxolan-2-yl]-1,2-benzisothiazol-5-yl]-1-methyl-6-(trifluoromethyl)uracil]
6.0: Preemergence herbicidal rating TRZAWR ([9]; Rate 0.0620 kg/ha) | Postemergence herbicidal rating, CASOB ([20]; rate 0.0320 kg/ha)
8.0: Preemergence herbicidal rating GLXMAW ([7]; Rate 0.1250 kg/ha) | Preemergence herbicidal rating TRZAWR ([9]; Rate 0.1250 kg/ha) | Preemergence herbicidal rating TRZAWR ([9]; Rate 0.2500 kg/ha) | Preemergence herbicidal rating IPOHE ([13]; Rate 0.1250 kg/ha) | Preemergence herbicidal rating ZEAMX ([14]; Rate 0.1250 kg/ha)
9.0: Preemergence herbicidal rating AMBEL ([1]; Rate 0.0620 kg/ha) | Preemergence herbicidal rating AMBEL ([1]; Rate 0.1250 kg/ha) | Preemergence herbicidal rating AMBEL ([1]; Rate 0.2500 kg/ha) | Preemergence herbicidal rating CHEAL ([2]; Rate 0.0620 kg/ha) | Preemergence herbicidal rating CHEAL ([2]; Rate 0.1250 kg/ha) | Preemergence herbicidal rating CHEAL ([2]; Rate 0.2500 kg/ha) | Preemergence herbicidal rating CASOB ([3]; Rate 0.2500 kg/ha) | Preemergence herbicidal rating ABUTH ([4]; Rate 0.0620 kg/ha) | Preemergence herbicidal rating ABUTH ([4]; Rate 0.1250 kg/ha) | Preemergence herbicidal rating ABUTH ([4]; Rate 0.2500 kg/ha) | Postemergence herbicidal rating, IPOHE ([6]; rate 0.0320 kg/ha) | Postemergence herbicidal rating, IPOHE ([6]; rate 0.0620 kg/ha) | Preemergence herbicidal rating GLXMAW ([7]; Rate 0.2500 kg/ha) | herbicidal rating, CYPIR ([8]; rate 0.1250 kg/ha) | Postemergence herbicidal rating, ABUTH ([11]; rate 0.0320 kg/ha) | Postemergence herbicidal rating, ABUTH ([11]; rate 0.0620 kg/ha) | herbicidal rating, MOOVA ([12]; rate 0.0320 kg/ha) | herbicidal rating, MOOVA ([12]; rate 0.1250 kg/ha) | Preemergence herbicidal rating IPOHE ([13]; Rate 0.2500 kg/ha) | Preemergence herbicidal rating ZEAMX ([14]; Rate 0.2500 kg/ha) | herbicidal rating, ORYSAT (rice tolerance) ([15]; rate 0.1250 kg/ha) | Preemergence herbicidal rating ECHCG ([16]; Rate 0.0620 kg/ha) | Preemergence herbicidal rating ECHCG ([16]; Rate 0.1250 kg/ha) | Preemergence herbicidal rating ECHCG ([16]; Rate 0.2500 kg/ha) | Preemergence herbicidal rating SETVI ([17]; Rate 0.0620 kg/ha) | Preemergence herbicidal rating SETVI ([17]; Rate 0.2500 kg/ha) | Postemergence herbicidal rating, AMBEL ([18]; rate 0.0320 kg/ha) | Postemergence herbicidal rating, AMBEL ([18]; rate 0.0620 kg/ha) | Postemergence herbicidal rating, CHEAL ([19]; rate 0.0320 kg/ha) | Postemergence herbicidal rating, CHEAL ([19]; rate 0.0620 kg/ha) | Postemergence herbicidal rating, CASOB ([20]; rate 0.0620 kg/ha)
3.0: herbicidal rating, ORYSAT (rice tolerance) ([15]; rate 0.0080 kg/ha)
7.5: Preemergence herbicidal rating CASOB ([3]; Rate 0.1250 kg/ha) | Postemergence herbicidal rating, GLXMAW ([10]; rate 0.0320 kg/ha) | Preemergence herbicidal rating IPOHE ([13]; Rate 0.0620 kg/ha) | Preemergence herbicidal rating ZEAMX ([14]; Rate 0.0620 kg/ha) | herbicidal rating, ORYSAT (rice tolerance) ([15]; rate 0.0320 kg/ha)
6.5: Postemergence herbicidal rating, ORYSAT ([5]; rate 0.0620 kg/ha)
4.5: Preemergence herbicidal rating CASOB ([3]; Rate 0.0620 kg/ha)
8.5: herbicidal rating, CYPIR ([8]; rate 0.0320 kg/ha) | Postemergence herbicidal rating, GLXMAW ([10]; rate 0.0620 kg/ha) | Preemergence herbicidal rating SETVI ([17]; Rate 0.1250 kg/ha)
0.0: herbicidal rating, CYPIR ([8]; rate 0.0080 kg/ha)
4.0: Postemergence herbicidal rating, ORYSAT ([5]; rate 0.0320 kg/ha)
7.0: Preemergence herbicidal rating GLXMAW ([7]; Rate 0.0620 kg/ha)

Reference: US6706663B2, “Herbicidal 3-heterocyclic substituted benzisothiazole and benzisoxazole compounds” (Wyeth, priority 2000, dated 2004)
